Results reported in patent US5362480A, “Oral hygiene compositions containing amino sugars as antiplaque agents” (Lever Brothers Company, Division of Conopco, Inc., priority 1992, dated 1994).
≈ marks a conversion by molar mass, not a printed value. Like-named read-outs stand apart in the source and are kept apart here.

Columns and labels:
[1] = tested on: coaggregation of Actinomyces naeslundii PK29 and Streptococcus sanguis G9B (β-galactose-specific binding proteins on A. naeslundii); experiment: Bacterial coaggregation assay (A. naeslundii PK29 with S. sanguis G9B); assay type: cell-based; conditions: for inhibition compared to the parent saccharide, lactose: vs lactose
Procedure: (§1) A bacterial coaggregation assay was used to determine the ability of various amino sugars to interfere with lectin-mediated binding among various bacterial species. For instance, many Actinomyces naeslundii strains coaggregate with Streptococcus sanguis as a result of binding between a lectin produced by the A. naeslundii cells and β-galactose-containing structures on the surface of the streptococci. For the present assay, A. naeslundii PK29 and S. sanguis G9B were cultured overnight in a medium containing 2.5% tryptone, 1.5% yeast extract, 0.1% magnesium sulfate, and 1.0% fructose. The cells were then washed twice in a 1.0 mM potassium phosphate buffer (pH=6.8) containing 1.0 mM calcium chloride, 0.1 mM magnesium chloride, and 50.0 mM potassium chloride (buffered KCl), after which they were resuspended in buffered KCl at an optical density (540 nm) of 1.5. The coaggregations were performed by combining 0.5 ml of each bacterial suspension with 0.2 ml of 5.0% bovine serum albumin (BSA) and 0.8 ml of an appropriate concentration of a targeted anti-plaque agent in 3.0 ml capped polystyrene cuvettes. The cuvettes (path length 1 cm) were gently inverted at room temperature, and the optical density (540 nm) was determined as a function of time (2.0 min intervals; 20 min).
(§2) The instrument employed to measure optical density was a variable wavelength spectrophotometer (Gilson Respons® Spectrophotometer, bought from Gilson).
(§3) The activity of a tested compound was expressed as inhibition relative to buffer controls (i.e., % inhibition=[1-change in optical density (inhibitor)]/change in optical density [control])×100.
(§4) The ability of various amino sugars (prepared as described in Examples 1 and 2) to target to β-galactose-specific binding proteins on A. naeslundii and thus to interfere with coaggregation interactions between A. naeslundii and S. sanguis was investigated. Coaggregation of Actinomyces naeslundii PK29 and Streptococcus sanguis G9B was performed as described in the Methods section (Bacterial Coaggregation Assay) above. Inhibition was calculated as 1.0--the change in optical density (540 nm) in the sample containing compound tested/the change in optical density in the coaggregation buffer control.

[2] = as above; assay type: cell-based, Actinomyces naeslundii PK29; Streptococcus sanguis G9B; conditions: Actinomyces naeslundii
Procedure: as §1, §2, §3, §4

Streptococcus sobrinus = experiment: Antimicrobial activity determination (MIC); assay type: cell-based, Streptococcus sobrinus 6715; conditions: read-out: Minimum Inhibitory Concentration, Streptococcus sobrinus
Procedure: (§5) The antimicrobial activity of the targeted agents was assessed by determining the minimum inhibitory concentration (MIC). Pure cultures of various strains of oral bacterial species as indicated in Table 3 were combined with serial dilutions of the targeted agents in beef heart infusion broth (BHI); starting bacterial concentrations were approximately 1.0×10E6 colony forming units (CFU) per ml. The mixtures were incubated aerobically at 37 degrees C. and the optical density (540 nm, path length 1 cm) of the cultures was measured at 0.0, 24.0 and 48.0 hr using Bausch and Lomb Spec 20 variable wavelength spectrophotometer.
(§6) The amino sugars within the scope of the invention and other compounds were tested for their bacteriostatic effects on the growth of several species of oral bacteria.

Actinomyces naeslundii [3] = experiment: Antimicrobial activity determination (MIC); assay type: cell-based; conditions: read-out: Minimum Inhibitory Concentration, Actinomyces naeslundii
Procedure: as §5, §6

Streptococcus sanguis = experiment: Antimicrobial activity determination (MIC); assay type: cell-based; conditions: read-out: Minimum Inhibitory Concentration, Streptococcus sanguis
Procedure: as §5, §6

Neisseria subflava = experiment: Antimicrobial activity determination (MIC); assay type: cell-based, Neisseria subflava A1078; conditions: read-out: Minimum Inhibitory Concentration, Neisseria subflava
Procedure: as §5, §6

Porphyromonas gingivalis = experiment: Antimicrobial activity determination (MIC); assay type: cell-based, Porphyromonas gingivalis W83; conditions: read-out: Minimum Inhibitory Concentration, Porphyromonas gingivalis
Procedure: as §5, §6

A. naeslundii PK29 = experiment: Latex bead-bacterial agglutination assay (asialofetuin-coated latex beads); assay type: cell-based, Actinomyces naeslundii PK29
Procedure: A latex bead agglutination assay was utilized to determine the effects of the amino sugars on lectin-mediated bacterial adherence to glycoprotein-coated surfaces. Latex beads (6.0 micrometer diameter) were prepared by suspending them in a 0.5 mg/ml solution of asialofetuin (a glycoprotein rich in oligosaccharide side chains which terminate in β-galactosyl groups) in 20.0 mM trishydroxyaminomethane buffer (ph=8.2) containing 0.73% glycine, 1.0% sodium chloride, 0.1 mM calcium chloride, and 0.02% sodium azide (TGS buffer). The beads were treated for 30.0 min at 37 degrees C. after which they were washed and resuspended in 0.1% BSA in TGS buffer. A. naeslundii PK29 cells were cultured as described in Bacterial Coaggregation Assay, washed, and resuspended in TGS buffer to an optical density (540 nm) of 1.5. The bacterial suspension (0.1 ml) and the prepared latex beads (1.0 ml) were combined with an appropriate concentration of inhibitor (0.8 ml) in 3.0 ml capped polystyrene cuvettes. The cuvettes were gently inverted at room temperature, and optical density (OD 540nm, 1 cm path length) was monitored at 2.0 min intervals for 20.0 min. The instrument employed was Gilson Response®.
The ability of the amino sugars to inhibit bacterial adhesion was also tested using the latex bead assay described above (Methods section). This assay measures the ability of the test agents to interfere with bacterial adhesion to a glycoprotein-coated solid surface, which is analogous to pellicle coated tooth surface. Agglutination of asialofetuin-coated latex beads by A. naeslundii PK29 performed as described above. Inhibition was calculated as 1.0--the change in optical density (540 nm) in the sample containing the inhibitor/the change in optical density in the coaggregation buffer control.

Prevotella intermedius = experiment: Antimicrobial activity determination (MIC); assay type: cell-based, Prevotella intermedius 25611; conditions: BHI broth, 37 degrees C., aerobic, read-out: Minimum Inhibitory Concentration, Prevotella intermedius
Procedure: as §5, §6

Veillonella dispar = experiment: Antimicrobial activity determination (MIC); assay type: cell-based, Veillonella dispar 17745; conditions: BHI broth, 37 degrees C., aerobic, read-out: Minimum Inhibitory Concentration, Veillonella dispar
Procedure: as §5, §6

[4] = tested on: Actinomyces strains 12104 and LY7; conditions: cited from earlier work
Clinical plaque strains = conditions: mouth rinse, five human individuals; cited from earlier work
Actinomyces viscosus = conditions: cited from earlier work
Actinomyces naeslundii [5] = conditions: cited from earlier work
[6] = BHI broth, 37 degrees C., aerobic

CCCCCCCCNC1O[C@H](CO)[C@@H](O)[C@H](O)[C@H]1O (stereo partly drawn) [N-octyl glucosylamine, reference compound]
inhibition of β-galactose-specific coaggregation (in words) [1]: lack of inhibition
inhibition at 3400 µM [2]: 0%

CCCCCCCN[C@@H]1O[C@H](CO)[C@H](O)[C@H](O)[C@H]1O [N-heptyl galactosylamine]
MIC (Streptococcus sobrinus; [6]): 1000 µg/mL (≈ 3610 µM)
MIC (Actinomyces naeslundii [3]; [6]): 250 µg/mL (≈ 901 µM)
MIC (Streptococcus sanguis; [6]): > 1000 µg/mL
MIC (Neisseria subflava; [6]): 125 µg/mL (≈ 451 µM)
MIC (Porphyromonas gingivalis; [6]): 125 µg/mL (≈ 451 µM)
inhibition of β-galactose-specific coaggregation (in words) [1]: effective inhibitors
inhibition of bacterial coaggregation compared to the parent saccharide, galactose ([1]; at the concentration tested, vs galactose): approximately twice as much
inhibition at 2900 µM [2]: 20%

CCCCCCCCCCN[C@@H]1O[C@H](CO)[C@@H](O[C@@H]2O[C@H](CO)[C@H](O)[C@H](O)[C@H]2O)[C@H](O)[C@H]1O [N-decyl lactosylamine]
MIC (Streptococcus sobrinus; [6]): 30 µg/mL (≈ 62.3 µM)
MIC (Actinomyces naeslundii [3]; [6]): 30 µg/mL (≈ 62.3 µM)
MIC (Streptococcus sanguis; [6]): 600 µg/mL (≈ 1250 µM)
MIC (Neisseria subflava; [6]): 60 µg/mL (≈ 125 µM)
inhibition of β-galactose-specific coaggregation (in words) [1]: effective inhibitors
inhibition compared to the parent saccharide, lactose [1]: slighly improved inhibition
inhibition at 1000 µM [2]: 11%
inhibition at 2100 µM [2]: 30%
inhibition at 3000 µM [2]: 64%

CCCCCCCCCCN[C@@H]1O[C@H](CO)[C@H](O)[C@H](O)[C@H]1O [N-decyl galactosylamine]
inhibition at 1800 µM (A. naeslundii PK29; Actinomyces naeslundii, PK29): 51%
inhibition of agglutination compared to galactose (A. naeslundii PK29; vs galactose): substantially more potent inhibitor

O=C[C@H](O)[C@@H](O)[C@@H](O)[C@H](O)CO [Galactose, reference compound]
inhibition at 2800 µM (A. naeslundii PK29; Actinomyces naeslundii, PK29): 17%
inhibition at 2800 µM [2]: 10%

CCCCCCCCCCCCOS(=O)(=O)[O-].[Na+] [Sodium dodecyl sulfate, reference compound]
MIC (Prevotella intermedius): 16 µg/mL
MIC (Streptococcus sobrinus): 60 µg/mL
MIC (Veillonella dispar): 60 µg/mL
MIC (Actinomyces naeslundii [3]): 8 µg/mL
MIC (Streptococcus sanguis): 15 µg/mL
MIC (Neisseria subflava): 8 µg/mL
MIC (Porphyromonas gingivalis): 2 µg/mL

CCCCCCCN[C@@H]1O[C@H](CO)[C@@H](O[C@@H]2O[C@H](CO)[C@H](O)[C@H](O)[C@H]2O)[C@H](O)[C@H]1O [N-heptyl lactosylamine]
MIC (Streptococcus sobrinus; [6]): 1000 µg/mL (≈ 2280 µM)
MIC (Actinomyces naeslundii [3]; [6]): 500 µg/mL (≈ 1140 µM)
MIC (Streptococcus sanguis; [6]): > 1000 µg/mL
MIC (Neisseria subflava; [6]): 500 µg/mL (≈ 1140 µM)
MIC (Porphyromonas gingivalis; [6]): 500 µg/mL (≈ 1140 µM)
inhibition of β-galactose-specific coaggregation (in words) [1]: effective inhibitors
inhibition compared to the parent saccharide, lactose [1]: slighly improved inhibition
inhibition at 1100 µM [2]: 23%
inhibition at 3000 µM [2]: 63%
inhibition at 11400 µM [2]: 79%

CCO[C@H]1O[C@H](CO)[C@H](O)[C@H](O[C@@H]2O[C@H](CO)[C@H](O)[C@H](O)[C@H]2NC(C)=O)[C@H]1O [GalNAcβ-3Galα1-O-ethyl]
adherence [4]: blocked adherence
plaque inhibitory activity (Clinical plaque strains): plaque inhibitory activity

CCCCCCCCCCNC1O[C@H](CO)[C@@H](O)[C@H](O)[C@H]1O (stereo partly drawn) [N-decyl glucosylamine]
inhibition of agglutination of glycoprotein-coated latex beads (in words) (A. naeslundii PK29): not an effective inhibitor
inhibition at 1800 µM (A. naeslundii PK29; Actinomyces naeslundii, PK29): 9%
MIC (Actinomyces naeslundii [3]; [6]): > 5000 µg/mL

CCOC1O[C@H](CO)[C@H](O)[C@H](O[C@@H]2O[C@H](CO)[C@H](O)[C@H](O)[C@H]2NC(C)=O)[C@H]1O (stereo partly drawn) [N-acetyl-galactosamine-β1,3-galactose-O-ethyl]
inhibition of binding to human erythrocytes (Actinomyces viscosus): inhibitor of binding
inhibition of binding to human erythrocytes (Actinomyces naeslundii [5]): inhibitor of binding

OC[C@H]1O[C@@H](O[C@H]2[C@H](O)[C@@H](O)C(O)O[C@@H]2CO)[C@H](O)[C@@H](O)[C@H]1O (stereo partly drawn) [Lactose, reference compound]
inhibition at 3000 µM [2]: 61%
